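Step 1: Grow cells in 96-well plates. Step 2: Expose to compound for 48 hours at 5 concentrations. Step 3: Interpolate endpoints linearly; if unreached, use highest concentration. TGI is the concentration that stops growth completely.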 Where a SMILES comes first, the peptide text is derived from it. [ ]: non-standard residue; d: D form. Ava = NCCCCC(=O)O; Mpa = O=C(O)CCS
How the values were obtained:
Test in all cases: NCI tumour cell line growth inhibition, 48 h
SW-620 colon = tested on: SW-620 colon
786-0 renal = tested on: 786-0 renal
MOLT-4 leukemia = tested on: MOLT-4 leukemia
NCI-H226 lung = tested on: NCI-H226 lung
PC-3 prostate = tested on: PC-3 prostate
SK-MEL-5 melanoma = tested on: SK-MEL-5 melanoma
RPMI-8226 leukemia = tested on: RPMI-8226 leukemia
ACHN renal = tested on: ACHN renal
HCT-15 colon = tested on: HCT-15 colon
MCF7 breast = tested on: MCF7 breast
SR leukemia = tested on: SR leukemia
IGROV1 ovarian = tested on: IGROV1 ovarian
NCI-H460 lung = tested on: NCI-H460 lung
HL-60(TB) leukemia = tested on: HL-60(TB) leukemia
MDA-MB-435 = tested on: MDA-MB-435
K-562 leukemia = tested on: K-562 leukemia
A549 NSCLC = tested on: A549 NSCLC
SNB-19 CNS = tested on: SNB-19 CNS
HOP-62 NSCLC = tested on: HOP-62 NSCLC
NCI-H522 lung = tested on: NCI-H522 lung
OVCAR-5 ovarian = tested on: OVCAR-5 ovarian
CCRF-CEM leukemia = tested on: CCRF-CEM leukemia
T-47D breast = tested on: T-47D breast
SN12C renal = tested on: SN12C renal
KM12 colon = tested on: KM12 colon
RXF 393 renal = tested on: RXF 393 renal
EKVX NSCLC = tested on: EKVX NSCLC
BT-549 breast = tested on: BT-549 breast
HCT-116 colon = tested on: HCT-116 colon
SK-MEL-28 melanoma = tested on: SK-MEL-28 melanoma
SNB-75 CNS = tested on: SNB-75 CNS
MALME-3M melanoma = tested on: MALME-3M melanoma
HOP-92 NSCLC = tested on: HOP-92 NSCLC
CAKI-1 renal = tested on: CAKI-1 renal
UO-31 renal = tested on: UO-31 renal
TK-10 renal = tested on: TK-10 renal
A498 renal = tested on: A498 renal
DU-145 prostate = tested on: DU-145 prostate
MDA-MB-231 breast = tested on: MDA-MB-231 breast
NCI-H23 lung = tested on: NCI-H23 lung
COLO 205 colon = tested on: COLO 205 colon
M14 melanoma = tested on: M14 melanoma
SK-MEL-2 melanoma = tested on: SK-MEL-2 melanoma
SF-295 CNS = tested on: SF-295 CNS
LOX IMVI melanoma = tested on: LOX IMVI melanoma
HT29 colon = tested on: HT29 colon
U251 CNS = tested on: U251 CNS
SF-268 CNS = tested on: SF-268 CNS
MDA-N = tested on: MDA-N
SF-539 CNS = tested on: SF-539 CNS
HS 578T breast = tested on: HS 578T breast
OVCAR-8 ovarian = tested on: OVCAR-8 ovarian
UACC-62 melanoma = tested on: UACC-62 melanoma
NCI/ADR-RES ovarian = tested on: NCI/ADR-RES ovarian
SK-OV-3 ovarian = tested on: SK-OV-3 ovarian
OVCAR-3 ovarian = tested on: OVCAR-3 ovarian
OVCAR-4 ovarian = tested on: OVCAR-4 ovarian
UACC-257 melanoma = tested on: UACC-257 melanoma
M19-MEL melanoma = tested on: M19-MEL melanoma
KM20L2 colon = tested on: KM20L2 colon
SNB-78 CNS = tested on: SNB-78 CNS
HCC-2998 colon = tested on: HCC-2998 colon
HOP-18 NSCLC = tested on: HOP-18 NSCLC
DMS 114 small cell lung = tested on: DMS 114 small cell lung
LXFL 529 NSCLC = tested on: LXFL 529 NSCLC

Question: With CC(NC(=O)CCS)C(=O)NC(C)C(=O)NC(Cc1c[nH]c2ccccc12)C(=O)NC(Cc1c[nH]cn1)C(=O)NC(CO)C(=O)NC(Cc1c[nH]c2ccccc12)C(=O)NCCCCC(=O)NC(C)C(=O)NC(CCC(N)=O)C(=O)NC(CCCCN)C(=O)NC(C)C(=O)NC(CCCNC(=N)N)C(=O)NC(CCCCN)C(N)=O (stereo unspecified) ([Mpa]AAWHSW[Ava]AQKARK-NH2; configuration not given here) as the compound, how does the TGI (SW-620 colon) read?
Answer: > 100 µM

Question: And the TGI (786-0 renal)?
Answer: > 100 µM

Question: What about the TGI (MOLT-4 leukemia) of the same compound?
Answer: > 100 µM

Question: And the TGI (NCI-H226 lung)?
Answer: > 100 µM

Question: What about the TGI (PC-3 prostate) of the same compound?
Answer: > 100 µM

Question: What about the TGI (SK-MEL-5 melanoma) of the same compound?
Answer: > 100 µM

Question: And the TGI (RPMI-8226 leukemia)?
Answer: > 100 µM

Question: What about the TGI (ACHN renal) of the same compound?
Answer: > 100 µM

Question: What about the TGI (HCT-15 colon) of the same compound?
Answer: > 100 µM

Question: And the TGI (MCF7 breast)?
Answer: > 100 µM

Question: And the TGI (SR leukemia)?
Answer: > 100 µM

Question: What about the TGI (IGROV1 ovarian) of the same compound?
Answer: > 100 µM

Question: And the TGI (NCI-H460 lung)?
Answer: > 100 µM

Question: And the TGI (HL-60(TB) leukemia)?
Answer: 65.4 µM

Question: What about the TGI (MDA-MB-435) of the same compound?
Answer: > 100 µM

Question: And the TGI (K-562 leukemia)?
Answer: 99.4 µM

Question: And the TGI (A549 NSCLC)?
Answer: > 100 µM

Question: And the TGI (SNB-19 CNS)?
Answer: > 100 µM

Question: What about the TGI (HOP-62 NSCLC) of the same compound?
Answer: > 100 µM

Question: What about the TGI (NCI-H522 lung) of the same compound?
Answer: > 100 µM

Question: What about the TGI (OVCAR-5 ovarian) of the same compound?
Answer: > 100 µM

Question: What about the TGI (CCRF-CEM leukemia) of the same compound?
Answer: > 100 µM

Question: And the TGI (T-47D breast)?
Answer: 64 µM

Question: What about the TGI (SN12C renal) of the same compound?
Answer: > 100 µM

Question: And the TGI (KM12 colon)?
Answer: 88.7 µM

Question: What about the TGI (RXF 393 renal) of the same compound?
Answer: > 100 µM

Question: What about the TGI (EKVX NSCLC) of the same compound?
Answer: > 100 µM

Question: And the TGI (BT-549 breast)?
Answer: > 100 µM

Question: What about the TGI (HCT-116 colon) of the same compound?
Answer: > 100 µM

Question: And the TGI (SK-MEL-28 melanoma)?
Answer: > 100 µM

Question: And the TGI (SNB-75 CNS)?
Answer: > 100 µM

Question: And the TGI (MALME-3M melanoma)?
Answer: 36.9 µM

Question: What about the TGI (HOP-92 NSCLC) of the same compound?
Answer: > 100 µM

Question: What about the TGI (CAKI-1 renal) of the same compound?
Answer: > 100 µM

Question: And the TGI (UO-31 renal)?
Answer: > 100 µM

Question: What about the TGI (TK-10 renal) of the same compound?
Answer: > 100 µM

Question: And the TGI (A498 renal)?
Answer: > 100 µM

Question: And the TGI (DU-145 prostate)?
Answer: > 100 µM

Question: And the TGI (MDA-MB-231 breast)?
Answer: > 100 µM

Question: And the TGI (NCI-H23 lung)?
Answer: > 100 µM

Question: And the TGI (COLO 205 colon)?
Answer: > 100 µM

Question: What about the TGI (M14 melanoma) of the same compound?
Answer: > 100 µM

Question: What about the TGI (SK-MEL-2 melanoma) of the same compound?
Answer: > 100 µM

Question: And the TGI (SF-295 CNS)?
Answer: > 100 µM

Question: And the TGI (LOX IMVI melanoma)?
Answer: > 100 µM

Question: And the TGI (HT29 colon)?
Answer: > 100 µM

Question: What about the TGI (U251 CNS) of the same compound?
Answer: > 100 µM

Question: What about the TGI (SF-268 CNS) of the same compound?
Answer: > 100 µM

Question: What about the TGI (MDA-N) of the same compound?
Answer: > 100 µM

Question: And the TGI (SF-539 CNS)?
Answer: > 100 µM

Question: What about the TGI (HS 578T breast) of the same compound?
Answer: > 100 µM

Question: And the TGI (OVCAR-8 ovarian)?
Answer: > 100 µM

Question: What about the TGI (UACC-62 melanoma) of the same compound?
Answer: 52 µM

Question: What about the TGI (NCI/ADR-RES ovarian) of the same compound?
Answer: > 100 µM

Question: And the TGI (SK-OV-3 ovarian)?
Answer: > 100 µM

Question: And the TGI (OVCAR-3 ovarian)?
Answer: > 100 µM

Question: What about the TGI (OVCAR-4 ovarian) of the same compound?
Answer: > 100 µM

Question: And the TGI (UACC-257 melanoma)?
Answer: 63.1 µM

Question: How did the TGI (SW-620 colon) turn out when Cn1cc(-c2ccc3c4ccccc4n(C)c3c2)c2ccccc21 was run?
Answer: > 100 µM

Question: And the TGI (786-0 renal)?
Answer: > 100 µM

Question: And the TGI (M19-MEL melanoma)?
Answer: > 100 µM

Question: What about the TGI (MOLT-4 leukemia) of the same compound?
Answer: > 100 µM

Question: And the TGI (NCI-H226 lung)?
Answer: > 100 µM

Question: And the TGI (SK-MEL-5 melanoma)?
Answer: > 100 µM

Question: And the TGI (RPMI-8226 leukemia)?
Answer: > 100 µM

Question: What about the TGI (ACHN renal) of the same compound?
Answer: > 100 µM

Question: What about the TGI (KM20L2 colon) of the same compound?
Answer: > 100 µM

Question: What about the TGI (HCT-15 colon) of the same compound?
Answer: > 100 µM

Question: What about the TGI (IGROV1 ovarian) of the same compound?
Answer: > 100 µM

Question: And the TGI (NCI-H460 lung)?
Answer: > 100 µM

Question: What about the TGI (HL-60(TB) leukemia) of the same compound?
Answer: > 100 µM

Question: What about the TGI (K-562 leukemia) of the same compound?
Answer: > 100 µM

Question: What about the TGI (A549 NSCLC) of the same compound?
Answer: > 100 µM

Question: What about the TGI (SNB-19 CNS) of the same compound?
Answer: > 100 µM

Question: And the TGI (HOP-62 NSCLC)?
Answer: > 100 µM

Question: What about the TGI (NCI-H522 lung) of the same compound?
Answer: > 100 µM

Question: What about the TGI (OVCAR-5 ovarian) of the same compound?
Answer: > 100 µM

Question: And the TGI (CCRF-CEM leukemia)?
Answer: > 100 µM

Question: What about the TGI (SNB-78 CNS) of the same compound?
Answer: > 100 µM

Question: What about the TGI (SN12C renal) of the same compound?
Answer: > 100 µM

Question: And the TGI (KM12 colon)?
Answer: > 100 µM

Question: What about the TGI (RXF 393 renal) of the same compound?
Answer: > 100 µM

Question: And the TGI (EKVX NSCLC)?
Answer: > 100 µM

Question: And the TGI (HCT-116 colon)?
Answer: > 100 µM

Question: What about the TGI (SK-MEL-28 melanoma) of the same compound?
Answer: > 100 µM

Question: What about the TGI (SNB-75 CNS) of the same compound?
Answer: > 100 µM

Question: And the TGI (MALME-3M melanoma)?
Answer: > 100 µM

Question: What about the TGI (CAKI-1 renal) of the same compound?
Answer: > 100 µM

Question: What about the TGI (UO-31 renal) of the same compound?
Answer: > 100 µM

Question: What about the TGI (TK-10 renal) of the same compound?
Answer: > 100 µM

Question: And the TGI (A498 renal)?
Answer: > 100 µM

Question: What about the TGI (HCC-2998 colon) of the same compound?
Answer: > 100 µM

Question: What about the TGI (NCI-H23 lung) of the same compound?
Answer: > 100 µM

Question: And the TGI (COLO 205 colon)?
Answer: > 100 µM

Question: And the TGI (M14 melanoma)?
Answer: > 100 µM

Question: What about the TGI (SK-MEL-2 melanoma) of the same compound?
Answer: > 100 µM

Question: What about the TGI (SF-295 CNS) of the same compound?
Answer: > 100 µM

Question: And the TGI (LOX IMVI melanoma)?
Answer: > 100 µM

Question: And the TGI (HT29 colon)?
Answer: > 100 µM

Question: What about the TGI (HOP-18 NSCLC) of the same compound?
Answer: > 100 µM

Question: And the TGI (U251 CNS)?
Answer: > 100 µM

Question: And the TGI (SF-268 CNS)?
Answer: > 100 µM

Question: What about the TGI (SF-539 CNS) of the same compound?
Answer: > 100 µM

Question: What about the TGI (OVCAR-8 ovarian) of the same compound?
Answer: > 100 µM

Question: What about the TGI (UACC-62 melanoma) of the same compound?
Answer: > 100 µM

Question: And the TGI (DMS 114 small cell lung)?
Answer: > 100 µM

Question: What about the TGI (SK-OV-3 ovarian) of the same compound?
Answer: > 100 µM

Question: And the TGI (LXFL 529 NSCLC)?
Answer: > 100 µM

Question: And the TGI (OVCAR-3 ovarian)?
Answer: > 100 µM

Question: And the TGI (OVCAR-4 ovarian)?
Answer: > 100 µM

Question: And the TGI (UACC-257 melanoma)?
Answer: > 100 µM

Source: PubChem BioAssay (NCI)
